# According to ChEMBL document CHEMBL1141678 (Eur J Med Chem, 2008):
# Tests used:
# Cytochrome P450 3A4 [1] = biological target: T1, Cytochrome P450 3A4 (Homo sapiens, UniProt P08684); experiment: Inhibition of human recombinant CYP3A4 in presence of reduced glutathione; assay type: ADME; conditions: recombinant enzyme
# Cytochrome P450 2C9 [2] = biological target: T2, Cytochrome P450 2C9 (Homo sapiens, UniProt P11712); experiment: Inhibition of human recombinant CYP2C9 in presence of reduced glutathione; assay type: ADME; conditions: recombinant enzyme
# Cytochrome P450 2D6 [3] = biological target: T3, Cytochrome P450 2D6 (Homo sapiens, UniProt P10635); experiment: Inhibition of human recombinant CYP2D6 in presence of reduced glutathione; assay type: ADME; conditions: recombinant enzyme
# Cytochrome P450 2B6 [4] = biological target: T4, Cytochrome P450 2B6 (Homo sapiens, UniProt P20813); experiment: Inhibition of human recombinant CYP2B6 in presence of reduced glutathione; assay type: ADME; conditions: recombinant enzyme
# T4 sequence (P20813 whole entry): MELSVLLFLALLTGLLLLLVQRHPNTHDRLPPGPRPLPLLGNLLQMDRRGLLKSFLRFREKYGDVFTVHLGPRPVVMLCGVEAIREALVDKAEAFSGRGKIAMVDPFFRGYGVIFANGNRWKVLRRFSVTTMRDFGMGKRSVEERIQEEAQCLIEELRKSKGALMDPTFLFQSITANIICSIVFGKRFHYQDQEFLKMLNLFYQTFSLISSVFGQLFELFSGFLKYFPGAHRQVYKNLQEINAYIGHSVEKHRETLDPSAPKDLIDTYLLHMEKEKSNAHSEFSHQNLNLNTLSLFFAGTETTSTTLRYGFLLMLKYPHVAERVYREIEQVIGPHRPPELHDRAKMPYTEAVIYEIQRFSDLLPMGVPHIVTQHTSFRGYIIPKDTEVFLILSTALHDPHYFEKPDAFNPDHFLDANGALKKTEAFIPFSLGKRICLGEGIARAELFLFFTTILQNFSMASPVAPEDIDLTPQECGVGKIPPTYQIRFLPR
# Cytochrome P450 2C9 [5] = biological target: T2, Cytochrome P450 2C9; experiment: Inhibition of human recombinant CYP2C9; assay type: ADME
# Cytochrome P450 2D6 [6] = biological target: T3, Cytochrome P450 2D6; experiment: Inhibition of human recombinant CYP2D6; assay type: ADME
# Cytochrome P450 1A2 = biological target: T5, Cytochrome P450 1A2 (Homo sapiens, UniProt P05177); experiment: Inhibition of human recombinant CYP1A2; conditions: for log(1/IC50): human
# T5 sequence (P05177 whole entry): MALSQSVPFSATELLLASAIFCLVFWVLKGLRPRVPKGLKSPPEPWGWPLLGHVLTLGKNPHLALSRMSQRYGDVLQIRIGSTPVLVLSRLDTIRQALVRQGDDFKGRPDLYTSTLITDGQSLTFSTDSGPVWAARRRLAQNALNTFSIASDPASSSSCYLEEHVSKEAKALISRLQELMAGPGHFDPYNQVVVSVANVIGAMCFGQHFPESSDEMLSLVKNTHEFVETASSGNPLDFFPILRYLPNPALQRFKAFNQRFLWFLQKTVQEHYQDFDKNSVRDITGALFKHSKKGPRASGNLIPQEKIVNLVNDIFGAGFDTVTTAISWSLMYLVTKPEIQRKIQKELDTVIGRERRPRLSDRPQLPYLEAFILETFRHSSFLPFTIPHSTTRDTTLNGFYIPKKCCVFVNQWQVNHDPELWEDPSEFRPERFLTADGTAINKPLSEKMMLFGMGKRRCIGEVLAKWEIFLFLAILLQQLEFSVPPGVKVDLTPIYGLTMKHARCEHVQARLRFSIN
# Cytochrome P450 2B6 [7] = biological target: T4, Cytochrome P450 2B6; experiment: Inhibition of human recombinant CYP2B6 at 100 uM; assay type: ADME; conditions: recombinant enzyme
# Cytochrome P450 3A4 [8] = biological target: T1, Cytochrome P450 3A4; experiment: Inhibition of human recombinant CYP3A4 at 100 uM; assay type: ADME; conditions: recombinant enzyme
# Cytochrome P450 2D6 [9] = biological target: T3, Cytochrome P450 2D6; experiment: Inhibition of human recombinant CYP2D6 at 100 uM; assay type: ADME; conditions: recombinant enzyme
# Cytochrome P450 3A4 [10] = biological target: T1, Cytochrome P450 3A4; experiment: Inhibition of human recombinant CYP3A4; assay type: ADME
# T1 sequence (P08684 whole entry): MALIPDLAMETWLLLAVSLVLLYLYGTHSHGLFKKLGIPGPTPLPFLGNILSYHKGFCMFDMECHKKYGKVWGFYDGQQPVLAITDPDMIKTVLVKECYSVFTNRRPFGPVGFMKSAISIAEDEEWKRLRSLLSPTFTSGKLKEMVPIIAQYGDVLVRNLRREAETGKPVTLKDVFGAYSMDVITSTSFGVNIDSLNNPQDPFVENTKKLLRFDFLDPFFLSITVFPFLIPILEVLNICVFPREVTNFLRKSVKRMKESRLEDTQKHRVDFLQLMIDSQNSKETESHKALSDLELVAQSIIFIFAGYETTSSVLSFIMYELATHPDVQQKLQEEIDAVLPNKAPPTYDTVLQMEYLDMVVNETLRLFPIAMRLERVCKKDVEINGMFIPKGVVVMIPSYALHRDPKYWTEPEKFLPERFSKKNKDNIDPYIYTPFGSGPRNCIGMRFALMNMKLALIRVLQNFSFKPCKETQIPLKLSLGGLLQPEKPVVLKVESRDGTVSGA
# T3 sequence (P10635 whole entry): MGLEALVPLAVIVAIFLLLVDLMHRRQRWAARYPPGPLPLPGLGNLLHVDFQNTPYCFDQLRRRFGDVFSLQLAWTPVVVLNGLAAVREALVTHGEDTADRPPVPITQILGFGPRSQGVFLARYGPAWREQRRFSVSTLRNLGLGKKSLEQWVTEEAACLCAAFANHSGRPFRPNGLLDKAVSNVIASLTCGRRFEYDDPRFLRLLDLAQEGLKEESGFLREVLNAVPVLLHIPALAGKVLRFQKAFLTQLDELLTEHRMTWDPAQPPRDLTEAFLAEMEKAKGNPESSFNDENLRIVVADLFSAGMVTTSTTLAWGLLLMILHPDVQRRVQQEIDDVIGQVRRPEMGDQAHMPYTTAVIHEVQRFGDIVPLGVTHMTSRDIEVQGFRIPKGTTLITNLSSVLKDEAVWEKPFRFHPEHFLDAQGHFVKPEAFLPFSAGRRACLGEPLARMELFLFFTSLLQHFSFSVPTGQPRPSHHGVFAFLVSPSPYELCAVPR
# T2 sequence (P11712 whole entry): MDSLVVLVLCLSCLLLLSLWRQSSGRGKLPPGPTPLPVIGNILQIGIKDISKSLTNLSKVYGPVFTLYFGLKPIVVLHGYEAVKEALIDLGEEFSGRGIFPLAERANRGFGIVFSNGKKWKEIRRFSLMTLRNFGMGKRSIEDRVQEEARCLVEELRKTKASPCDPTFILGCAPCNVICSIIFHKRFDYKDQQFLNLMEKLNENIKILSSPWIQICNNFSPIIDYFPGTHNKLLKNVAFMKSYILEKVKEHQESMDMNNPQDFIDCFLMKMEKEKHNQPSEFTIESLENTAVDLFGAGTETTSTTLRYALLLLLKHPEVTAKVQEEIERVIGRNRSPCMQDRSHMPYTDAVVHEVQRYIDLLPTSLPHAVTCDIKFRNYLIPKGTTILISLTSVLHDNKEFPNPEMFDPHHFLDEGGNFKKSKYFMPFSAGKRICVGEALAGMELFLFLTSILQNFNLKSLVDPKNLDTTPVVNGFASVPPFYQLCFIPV
SMILES,Activity (Cytochrome P450 3A4 [1]),Activity (Cytochrome P450 2C9 [2]),Activity (Cytochrome P450 2D6 [3]),Activity (Cytochrome P450 2B6 [4]),IC50 (Cytochrome P450 2C9 [5]) [µM],IC50 (Cytochrome P450 2D6 [6]) [µM],IC50 (Cytochrome P450 1A2) [µM],log(1/IC50) (Cytochrome P450 1A2; recombinant CYP1A2),Activity (Cytochrome P450 2B6 [7]),Activity (Cytochrome P450 3A4 [8]),Activity (Cytochrome P450 2D6 [9]),IC50 (Cytochrome P450 3A4 [10]) [µM],log(1/IC50) (Cytochrome P450 1A2)
O=C(/C=C/c1ccc(O)cc1)/C=C/c1ccc(O)cc1,Not Active,Not Active,Not Active,Not Active,1.8,2,–,–,–,–,–,–,–
COc1ccc(/C=C2\CCC/C(=C\c3ccc(OC)cc3)C2=O)cc1,Not Active,Not Active,Not Active,Not Active,–,–,11,1.959,Not Active,Not Active,Not Active,–,–
O=C1/C(=C/c2ccc(Cl)c(Cl)c2)CC/C1=C\c1ccc(Cl)c(Cl)c1,Not Active,Not Active,Not Active,Not Active,–,–,–,–,–,–,–,–,–
CC(C)(C)c1ccc(/C=C/C(=O)/C=C/c2ccc(C(C)(C)C)cc2)cc1,Not Active,Not Active,Not Active,Not Active,–,–,28,1.553,–,–,–,–,–
Cc1ccc(/C=C/C(=O)/C=C/c2ccc(C)cc2)cc1,Not Active,Not Active,Not Active,Not Active,–,–,–,–,–,–,–,–,–
CN(C)c1ccc(/C=C2\CC/C(=C\c3ccc(N(C)C)cc3)C2=O)cc1,Not Active,Not Active,Not Active,Not Active,–,–,–,–,–,–,–,–,–
O=C1/C(=C/c2ccc(O)cc2)CCC/C1=C\c1ccc(O)cc1,Not Active,Not Active,Not Active,Not Active,1,–,–,–,Not Active,Not Active,Not Active,–,–
COc1cc(/C=C2\CC/C(=C\c3ccc(O)c(OC)c3)C2=O)ccc1O,Not Active,Not Active,Not Active,Not Active,2.8,–,38.9,1.41,–,–,–,64.9,–
O=C(/C=C/c1ccccc1)/C=C/c1ccccc1,Not Active,Not Active,Not Active,Not Active,67.3,68.5,–,–,–,–,–,–,–
O=C1/C(=C/c2cccc(Cl)c2)CC/C1=C\c1cccc(Cl)c1,Not Active,Not Active,Not Active,Not Active,–,–,–,–,–,–,–,–,–
COc1ccc(/C=C2\CC/C(=C\c3ccc(OC)cc3)C2=O)cc1,Not Active,Not Active,Not Active,Not Active,–,–,–,–,–,–,–,–,–
O=C1/C(=C/c2ccc(O)cc2)CC/C1=C\c1ccc(O)cc1,Not Active,Not Active,Not Active,Not Active,9.9,–,45.6,1.341,–,–,–,5.1,–
Cc1cc(/C=C2\CC/C(=C\c3cc(C)c(O)c(C)c3)C2=O)cc(C)c1O,Not Active,Not Active,Not Active,Not Active,28.3,–,–,–,–,–,–,–,–
CCc1cc(/C=C2\CC/C(=C\c3cc(CC)c(O)c(CC)c3)C2=O)cc(CC)c1O,Not Active,Not Active,Not Active,Not Active,37.7,–,36.7,–,–,–,–,73.5,1.435
O=C(/C=C/c1cccc(Cl)c1)/C=C/c1cccc(Cl)c1,Not Active,Not Active,Not Active,Not Active,21.3,–,3.4,2.469,–,–,–,–,–
O=C(/C=C/c1ccc(Cl)c(Cl)c1)/C=C/c1ccc(Cl)c(Cl)c1,Not Active,Not Active,Not Active,Not Active,–,–,–,–,–,–,–,–,–
"O=C1/C(=C/c2ccccc2)CCC/C1=C\c1ccccc1 [2,6-DIBENZYLIDENECYCLOHEXANONE]",Not Active,Not Active,Not Active,Not Active,–,–,0.9,3.046,Not Active,Not Active,Not Active,–,–
COc1cc(/C=C/C(=O)/C=C/c2ccc(O)c(OC)c2)ccc1O,Not Active,Not Active,Not Active,Not Active,–,0.6,41.5,–,–,–,–,–,1.382
O=C(/C=C/c1ccc(Cl)cc1)/C=C/c1ccc(Cl)cc1,Not Active,Not Active,Not Active,Not Active,–,–,26.6,1.575,–,–,–,–,–
O=C1/C(=C/c2ccc(C(F)(F)F)cc2)CC/C1=C\c1ccc(C(F)(F)F)cc1,Not Active,Not Active,Not Active,Not Active,–,–,–,–,–,–,–,–,–
O=C(/C=C/c1ccc(C(F)(F)F)cc1)/C=C/c1ccc(C(F)(F)F)cc1,Not Active,Not Active,Not Active,Not Active,–,–,4,2.398,–,–,–,–,–
O=C1/C(=C/c2ccc(C(F)(F)F)cc2)CCC/C1=C\c1ccc(C(F)(F)F)cc1,Not Active,Not Active,Not Active,Not Active,–,–,10.4,1.983,Not Active,Not Active,Not Active,–,–
Cc1cc(/C=C2\CCC/C(=C\c3cc(C)c(O)c(C)c3)C2=O)cc(C)c1O,Not Active,Not Active,Not Active,Not Active,–,–,–,–,Not Active,Not Active,Not Active,–,–
O=C1/C(=C/c2cccc(Cl)c2)CCC/C1=C\c1cccc(Cl)c1,Not Active,Not Active,Not Active,Not Active,–,–,3.4,2.469,Not Active,Not Active,Not Active,–,–
CN(C)c1ccc(/C=C2\CCC/C(=C\c3ccc(N(C)C)cc3)C2=O)cc1,Not Active,Not Active,Not Active,Not Active,–,–,2.6,2.585,Not Active,Not Active,Not Active,–,–
CC(C)(C)c1cc(/C=C2\CCC/C(=C\c3cc(C(C)(C)C)c(O)c(C(C)(C)C)c3)C2=O)cc(C(C)(C)C)c1O,Not Active,Not Active,Not Active,Not Active,–,–,–,–,Not Active,Not Active,Not Active,–,–
Cc1ccc(/C=C2\CCC/C(=C\c3ccc(C)cc3)C2=O)cc1,Not Active,Not Active,Not Active,Not Active,–,–,21,1.678,Not Active,Not Active,Not Active,–,–
O=C1/C(=C/c2ccccc2)CC/C1=C\c1ccccc1,Not Active,Not Active,Not Active,Not Active,–,–,36.6,1.437,–,–,–,–,–
O=C1/C(=C/c2ccc(Cl)cc2)CC/C1=C\c1ccc(Cl)cc1,Not Active,Not Active,Not Active,Not Active,–,–,–,–,–,–,–,–,–
